The values below come from ChEMBL document CHEMBL1145231, “2-Alkoxydihydrocinnamates as PPAR agonists. Activity modulation by the incorporation of phenoxy substituents” (Bioorg Med Chem Lett, 2005).

Test [1] has as its target T1, Peroxisome proliferator-activated receptor delta (Homo sapiens, UniProt Q03181).
T1 sequence (Q03181 whole entry): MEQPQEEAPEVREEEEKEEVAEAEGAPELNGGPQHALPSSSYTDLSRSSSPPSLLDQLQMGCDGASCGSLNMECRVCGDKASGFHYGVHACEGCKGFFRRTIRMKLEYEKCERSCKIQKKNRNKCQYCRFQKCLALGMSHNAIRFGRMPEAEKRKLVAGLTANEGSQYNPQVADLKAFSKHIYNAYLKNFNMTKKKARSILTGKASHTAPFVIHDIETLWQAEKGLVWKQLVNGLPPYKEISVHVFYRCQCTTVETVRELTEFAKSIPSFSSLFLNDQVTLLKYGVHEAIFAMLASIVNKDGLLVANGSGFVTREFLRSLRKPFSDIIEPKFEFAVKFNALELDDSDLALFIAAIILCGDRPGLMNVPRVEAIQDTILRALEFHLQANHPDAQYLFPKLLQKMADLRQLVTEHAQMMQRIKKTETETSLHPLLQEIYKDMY

In test [2] the target is T2, Peroxisome proliferator-activated receptor alpha (Homo sapiens, UniProt Q07869).
T2 sequence (Q07869 whole entry): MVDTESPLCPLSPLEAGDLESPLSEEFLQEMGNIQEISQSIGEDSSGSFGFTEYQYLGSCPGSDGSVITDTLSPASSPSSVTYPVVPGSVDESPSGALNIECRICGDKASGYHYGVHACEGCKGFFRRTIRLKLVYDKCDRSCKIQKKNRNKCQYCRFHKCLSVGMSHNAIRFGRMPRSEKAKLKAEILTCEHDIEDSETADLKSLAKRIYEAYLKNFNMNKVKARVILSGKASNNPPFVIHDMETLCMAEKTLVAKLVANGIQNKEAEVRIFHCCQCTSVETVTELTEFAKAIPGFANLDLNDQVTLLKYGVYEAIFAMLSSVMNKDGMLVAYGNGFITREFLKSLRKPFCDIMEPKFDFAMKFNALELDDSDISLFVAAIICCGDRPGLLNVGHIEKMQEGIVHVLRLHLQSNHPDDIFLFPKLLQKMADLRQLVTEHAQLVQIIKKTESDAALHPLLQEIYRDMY

In test [3] the target is T2, Peroxisome proliferator-activated receptor alpha. This is another data set of the same source.
The species named for test [4] is Rattus norvegicus. The experiment in a line: animal or person. The format is functional.

Molecules are shown by their SMILES. pEC50, pIC50: −log10 of the molar value. Some results are limits rather than exact numbers.

With `COc1cc(C[C@H](OC)C(=O)O)ccc1OCCCOc1ccc(Oc2ccccc2)cc1`, the pIC50 in test [1] is 5.12; in test [2] it was 5.87. Besides, the pEC50 in test [3] was 5.67. In test [4], this molecule gave an ED50 of 0.12 mg/kg.
Consider `CO[C@@H](Cc1ccc(OCCCOc2ccc(C(=O)c3ccccc3)cc2)c(Cl)c1)C(=O)O`, for which the pIC50 in test [1] is 5.82; in test [2], 6.51. This molecule showed a negative-log EC50 (pEC50) in test [3] of 5.57. In test [4], the ED50 came to 0.29 mg/kg.
With `CO[C@@H](Cc1ccc(C#CCCOc2ccc(Oc3ccccc3)cc2)cc1)C(=O)O`, the pIC50 in test [1] is 5.40; in test [2] it was 5.94. Also, the negative logarithm of the EC50 (pEC50) in test [3] was 5.73. Moreover, the ED50 in test [4] was found to be 0.08 mg/kg.
The like results for `CO[C@@H](Cc1ccc(C#CCCCOc2ccc(Oc3ccccc3)cc2)cc1)C(=O)O` were, in that order, 5.38, 6.11, 5.58 and 0.07 mg/kg.
The like results for `CO[C@@H](Cc1ccc(OCCCOc2ccc(-c3ccccc3)cc2)cc1)C(=O)O` were, in that order, 5.86, 6.25, 5.96 and 1.5 mg/kg.
For the molecule `CCO[C@@H](Cc1ccc(OCCCOc2ccc(Oc3ccccc3)cc2)cc1)C(=O)O`, the pIC50 in test [1] is 5.80; in test [2], 5.77. The molecule also had a pEC50 in test [3] of 5.56. In test [4], this molecule showed an ED50 of 0.015 mg/kg.
With `CO[C@@H](Cc1ccc(OCCCOc2ccc(C(=O)c3ccccc3)cc2)cc1)C(=O)O`, the results for the pIC50 in test [1] and in test [2] were 5.63 and 6.33, respectively. For the same molecule, the pEC50 in test [3] was 5.54. The 50% effect level in test [4] (ED50) was put at a dose of 0.18 mg/kg.
In the case of `CC(C)(Oc1ccc(C(=O)c2ccc(Cl)cc2)cc1)C(=O)O` [FENOFIBRIC ACID], the pIC50 in test [2] is < 5.00. Moreover, in test [3], the pEC50 was < 5.00.
On to `CO[C@@H](Cc1ccc(OCCCOc2ccc(Oc3ccccc3)cc2)cc1)C(=O)O` [NAVEGLITAZAR], for which the pIC50 was 5.72 in test [1] and 5.57 in test [2]. In test [3], this molecule gave a pEC50 of 5.55. In addition, the 50% effective dose (ED50) in test [4] stood at 0.1 mg/kg.

For orientation: pIC50 means the negative decadic logarithm of the IC50, by convention in mol/L. Lower therefore signals a high IC50. For orientation: pEC50 means the EC50 on a negative log10 scale, so that one unit is a factor of ten. As usually defined, the ED50 is the midpoint of the dose-response relation.
